Laboratory results published in publication PMC11271627, “Molecular dynamics-guided optimization of BGM0504 enhances dual-target agonism for combating diabetes and obesity” (Scientific Reports, 2024).

How the values were obtained:
Human GLP-1R = biological target: T1, Human GLP-1R (Homo sapiens, UniProt P43220); assay: cAMP accumulation assay, GLP-1R; assay type: cell-based; settings: HEK293 cells; relative to 10 nM GLP-1(7–37) high control; arithmetic mean ± SEM
T1 construct: expressed in transfected cells; host or cells: HEK293 cells
Experimental: (§1) These cells were then resuspended in 5 mL of the assay buffer, and their concentration was determined using a Vi-Cell Counter. […] Samples were subsequently added to the assay plate along with ECHO555. […] A volume of 10 µL of the cell suspension was added to the assay plate, with a density of 1000 cells/well for GLP-1R testing and 2000 cells/well for GIPR testing. The assay plate was then incubated in a 23°C incubator for 30 minutes. A starting concentration of 800 nM was used to prepare the cAMP standard curve, followed by a 4-fold 10-point serial dilution. These serially diluted cAMP standards were added to the assay plate at a volume of 10 µL/well. Subsequently, 10 µL of the cAMP detection solution was added to the assay plate, and the plate was incubated at room temperature for 1 hour, shielded from direct light. […] For data analysis, each data point’s cAMP level (nM) was calculated using the established cAMP standard curve. The percentage activity for each data point was determined using the formula: % Activity = (cAMP level of testing sample - average cAMP level of low control) / ([…] cAMP level of high control - average cAMP level of […] control) × 100%. Additionally, the ‘log(agonist) vs. response – variable slope’ model in GraphPad Prism 5.0 was used to fit the dose-response curve of each sample and calculate the EC50 value.

Human GIPR = biological target: T2, Human GIPR (Homo sapiens, UniProt P48546); assay: cAMP accumulation assay, GIPR; assay type: cell-based; settings: CHO
T2 construct: expressed in transfected cells; host or cells: CHO cells
T2 sequence (P48546 22-466): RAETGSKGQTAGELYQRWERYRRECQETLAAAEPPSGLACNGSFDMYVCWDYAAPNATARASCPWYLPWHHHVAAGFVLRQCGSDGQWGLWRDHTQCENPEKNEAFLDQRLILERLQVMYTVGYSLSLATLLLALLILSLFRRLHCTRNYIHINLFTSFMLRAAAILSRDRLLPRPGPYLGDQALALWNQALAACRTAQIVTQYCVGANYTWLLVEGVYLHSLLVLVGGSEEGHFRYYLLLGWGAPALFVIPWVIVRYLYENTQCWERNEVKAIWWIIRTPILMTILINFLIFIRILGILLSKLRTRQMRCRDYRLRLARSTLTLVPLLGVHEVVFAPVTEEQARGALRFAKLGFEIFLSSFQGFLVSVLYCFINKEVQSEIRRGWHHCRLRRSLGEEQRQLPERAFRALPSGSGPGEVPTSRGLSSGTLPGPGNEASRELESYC
Experimental: as §1

[1] = biological target: T3, Human Serum Albumin (HSA) protein (Homo sapiens, UniProt P02768); assay: biochemical; assay type: binding
T3 construct: purified Human ALB (25–609)-His was immobilized
Text: The buffer used was PBST (PBS with 0.02% Tween 20).

T1 sequence (P43220 24-463): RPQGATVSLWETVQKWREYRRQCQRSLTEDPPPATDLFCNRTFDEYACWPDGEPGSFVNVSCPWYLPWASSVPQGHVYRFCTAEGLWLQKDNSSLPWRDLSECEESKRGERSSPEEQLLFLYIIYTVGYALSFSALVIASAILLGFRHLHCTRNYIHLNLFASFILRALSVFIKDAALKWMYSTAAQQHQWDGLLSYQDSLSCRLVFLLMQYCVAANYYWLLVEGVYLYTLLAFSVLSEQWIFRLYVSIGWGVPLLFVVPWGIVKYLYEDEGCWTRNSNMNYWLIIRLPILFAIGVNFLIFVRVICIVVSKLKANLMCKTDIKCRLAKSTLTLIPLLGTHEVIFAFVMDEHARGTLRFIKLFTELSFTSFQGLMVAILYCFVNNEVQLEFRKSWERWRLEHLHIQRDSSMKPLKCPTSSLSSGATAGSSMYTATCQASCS
T3 sequence (P02768 25-609): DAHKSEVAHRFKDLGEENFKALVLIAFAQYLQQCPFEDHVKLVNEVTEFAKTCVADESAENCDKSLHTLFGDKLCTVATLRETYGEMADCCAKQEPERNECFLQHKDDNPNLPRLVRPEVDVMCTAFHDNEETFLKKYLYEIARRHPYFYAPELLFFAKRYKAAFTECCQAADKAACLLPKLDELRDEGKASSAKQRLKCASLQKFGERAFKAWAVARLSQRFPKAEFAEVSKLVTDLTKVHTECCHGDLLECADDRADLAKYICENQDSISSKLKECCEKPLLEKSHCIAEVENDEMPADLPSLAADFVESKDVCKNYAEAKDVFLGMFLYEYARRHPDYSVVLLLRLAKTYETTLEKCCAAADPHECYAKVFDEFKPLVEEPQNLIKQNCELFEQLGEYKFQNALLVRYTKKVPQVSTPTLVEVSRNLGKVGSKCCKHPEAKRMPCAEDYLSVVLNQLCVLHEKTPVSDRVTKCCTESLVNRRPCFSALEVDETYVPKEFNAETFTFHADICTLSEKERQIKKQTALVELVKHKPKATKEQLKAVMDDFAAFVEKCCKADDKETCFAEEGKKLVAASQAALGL

SMILES | Emax (Human GLP-1R) | Emax (Human GIPR) | Kd [1]
CC[C@H](C)[C@H](NC(=O)[C@H](CC(C)C)NC(=O)[C@H](Cc1c[nH]c2ccccc12)NC(=O)[C@H](CCC(N)=O)NC(=O)[C@@H](NC(=O)[C@H](Cc1ccccc1)NC(=O)[C@H](C)NC(=O)[C@H](CCCCNC(=O)COCCOCCNC(=O)COCCOCCNC(=O)CC[C@H](NC(=O)CCCCCCCCCCCCCCCCCCC(=O)O)C(=O)O)NC(=O)[C@H](CCC(N)=O)NC(=O)[C@H](C)NC(=O)[C@@H](NC(=O)[C@H](CCCCN)NC(=O)[C@H](CC(=O)O)NC(=O)[C@H](CC(C)C)NC(=O)C(C)(C)NC(=O)[C@@H](NC(=O)[C@H](CO)NC(=O)[C@H](Cc1ccc(O)cc1)NC(=O)[C@H](CC(=O)O)NC(=O)[C@H](CO)NC(=O)[C@@H](NC(=O)[C@H](Cc1ccccc1)NC(=O)[C@@H](NC(=O)CNC(=O)[C@H](CCC(=O)O)NC(=O)C(C)(C)NC(=O)[C@@H](N)Cc1ccc(O)cc1)[C@@H](C)O)[C@@H](C)O)[C@@H](C)CC)[C@@H](C)CC)C(C)C)C(=O)N[C@@H](C)C(=O)NCC(=O)NCC(=O)N1CCC[C@H]1C(=O)N[C@@H](CO)C(=O)N[C@@H](CO)C(=O)NCC(=O)N[C@@H](C)C(=O)N1CCC[C@H]1C(=O)N1CCC[C@H]1C(=O)N1CCC[C@H]1C(=O)N[C@@H](CO)C(N)=O [Tirzepatide, reference compound] | 84.1 ± 5% | 87.1 ± 7.6% | 0.0863 µM
CC[C@H](C)[C@H](NC(=O)[C@H](CC(C)C)NC(=O)[C@H](Cc1c[nH]c2ccccc12)NC(=O)[C@H](CCC(N)=O)NC(=O)[C@@H](NC(=O)[C@H](Cc1ccccc1)NC(=O)[C@H](C)NC(=O)[C@H](CCCCN)NC(=O)[C@H](CCC(N)=O)NC(=O)[C@H](C)NC(=O)[C@@H](NC(=O)[C@H](CCCCN)NC(=O)[C@H](CC(=O)O)NC(=O)[C@H](CC(C)C)NC(=O)C(C)(C)NC(=O)[C@@H](NC(=O)[C@H](CO)NC(=O)[C@H](Cc1ccc(O)cc1)NC(=O)[C@H](CC(=O)O)NC(=O)[C@H](CO)NC(=O)[C@@H](NC(=O)[C@H](Cc1ccccc1)NC(=O)[C@@H](NC(=O)CNC(=O)[C@H](CCC(=O)O)NC(=O)C(C)(C)NC(=O)[C@@H](N)Cc1ccc(O)cc1)[C@@H](C)O)[C@@H](C)O)[C@@H](C)CC)[C@@H](C)CC)C(C)C)C(=O)N[C@@H](C)C(=O)NCC(=O)NCC(=O)N1CCC[C@H]1C(=O)N[C@@H](CO)C(=O)N[C@@H](CO)C(=O)NCC(=O)N[C@@H](C)C(=O)N1CCC[C@H]1C(=O)N1CCC[C@H]1C(=O)N1CCC[C@H]1C(=O)N[C@@H](CO)C(N)=O [Non-acylated Tirzepatide, reference compound] | 96.1 ± 10.8% | 92.2 ± 1.7% | 
